Reference: US11952384B2, “Anti-tumor compound and preparation method and use thereof” (DUALITY BIOLOGICS (SUZHOU) CO., LTD., priority 2020, dated 2024)
Like-named read-outs stand apart in the source and are kept apart here.

Experiments:
NCI-N87 cells = experiment: Inhibition of in vitro proliferation of tumor cells by compounds (CTG, 6 days); type: cell-based; conditions: small molecule fragments, 6 days of culture, CTG, read-out: NCI-N87 IC50
Summary of the method: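 NCI-N87 cells in RPMI-1640 with 10% FBS, plated and allowed 18 h attachment, then exposed in duplicate to 8 concentrations from 300 nM to 0.1 nM for 6 days at 37 °C, 5% CO2. Viability read by CellTiter-Glo luminescence; IC50 derived from the dose-response.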

JIMT-1 cells = experiment: as above; type: cell-based; conditions: small molecule fragments, 6 days of culture, CTG, read-out: JIMT-1 IC50
Summary of the method: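 JIMT-1 cells in RPMI-1640/10% FBS plated at 6×10^4 cells/mL, left 18 h, then exposed to 8 compound concentrations (0.1–300 nM) in duplicate for 6 days at 37° C. Viability by CellTiter-Glo luminescence; IC50 derived.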

BCRP = molecular target: T1, BCRP (Homo sapiens, UniProt Q9UNQ0); experiment: Study on transporter substrates in Caco-2 cell model; conditions: Caco-2; for efflux ratio at 2 h / recovery at 2 h: human; for efflux ratio at 2 h: Caco-2, Efflux ratio
T1 sequence (Q9UNQ0 1-655): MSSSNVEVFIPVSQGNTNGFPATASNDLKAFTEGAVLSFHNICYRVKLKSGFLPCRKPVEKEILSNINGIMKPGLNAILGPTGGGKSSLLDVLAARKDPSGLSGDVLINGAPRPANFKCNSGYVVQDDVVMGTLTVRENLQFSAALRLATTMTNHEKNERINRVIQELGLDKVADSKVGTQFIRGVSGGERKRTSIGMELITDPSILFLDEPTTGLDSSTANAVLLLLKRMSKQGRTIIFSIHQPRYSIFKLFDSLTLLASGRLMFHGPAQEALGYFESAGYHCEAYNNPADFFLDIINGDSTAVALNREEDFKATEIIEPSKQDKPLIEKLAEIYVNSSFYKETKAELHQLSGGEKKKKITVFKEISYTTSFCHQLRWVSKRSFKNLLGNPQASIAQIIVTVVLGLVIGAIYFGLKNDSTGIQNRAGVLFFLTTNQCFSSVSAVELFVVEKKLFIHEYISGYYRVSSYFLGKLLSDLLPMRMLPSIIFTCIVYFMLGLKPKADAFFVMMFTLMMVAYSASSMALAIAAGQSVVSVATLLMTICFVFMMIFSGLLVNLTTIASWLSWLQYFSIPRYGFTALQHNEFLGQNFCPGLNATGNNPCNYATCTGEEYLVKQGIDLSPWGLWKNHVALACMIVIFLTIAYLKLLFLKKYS
Protocol: To investigate whether the compounds of the present invention is a substrate for efflux transporters P-gp and BCRP in a Caco-2 cell model, thereby providing preclinical basis for analyzing the drug-drug interaction in pharmacokinetics.
• 1) Cell culture medium was added to each well of the Transwell. The HTS Transwell plate was incubated under conditions of 37° C. and 5% CO2 for 1 h prior to cell inoculation. • 2) Caco-2 cells were diluted with culture medium and the cell suspension was dispensed into filter wells of the 96-well HTS Transwell plate. […] The cell culture medium was changed periodically. • 3) Monolayer cell resistance was measured using the Millicell Epithelial Volt-Ohm detection system. The resistance of each well was recorded. After all wells were measured, the Transwell plate was put back into the incubator. TEER of each well was calculated according to the formula. The TEER value of each well should be greater than 230 ohm·cm^2. […] Preparation for Transporter Test • 1) The Caco-2 plate was taken out from the incubator. The monolayer cells were washed with pre-heated HBSS twice. The plate was then incubated at 37° C. for 30 min. • 2) Stock solutions of the compounds were prepared in DMSO and diluted with HBSS to obtain working solutions. Digoxin was used as a reference substrate for P-gp and rosuvastatin was used as a reference substrate for BCRP. Propranolol was used as a high permeability marker. • 3) The working solution (without inhibitor) was added to the Transwell insert (apical compartment) to determine the rate of drug transport in the apical to basolateral direction. The transfer buffer was added to the wells in the receiver plate (basolateral compartment). The working solution (without inhibitor) was added to the receiver plate wells (basolateral compartment) to determine the rate of drug transport in the basolateral to apical direction. The Transwell insert (apical compartment) was filled with the transport buffer. PSC833 was added to the apical and basolateral compartments to determine the rate of drug transport in the presence of P-gp inhibitors. • 4) The sample was transferred from the working solution to the quenching solution, and a sample with a time of 0 was prepared. The Transwell plate was incubated under conditions of 37° C. and 5% CO2 for 2 h. • 5) At the end of the transport cycle, the samples were transferred from the apical and basolateral wells into a new 96-well plate. Cold acetonitrile or methanol containing the appropriate internal standard (IS) was added to each well of the plate. The plate was vortexed for 10 min. The samples were centrifuged. The supernatant of an aliquot was mixed with an appropriate amount of ultrapure water (depending on the LC-MS/MS signal response and peak shape) prior to the LC-MS/MS analysis. • 6) The stock solution of lucifer yellow in DMSO was prepared and diluted with HBSS to determine the amount of lucifer yellow leakage after a 2-hour transport period. The lucifer yellow solution was added to the apical compartment. HBSS was added to the basolateral compartment. The plate was incubated at 37° C. for 30 min, and a certain amount of the solution was directly taken from the apical and basolateral wells and transferred to a new 96-well plate. The lucifer yellow fluorescence was measured in a fluorescence plate reader with 485 nm excitation and 530 nm emission (to monitor monolayer integrity).
Data were calculated using Microsoft Excel. The percentage of the compound remaining at each time point was estimated by determining the peak area ratio from the extracted ion chromatogram.
For drug transport analysis in the Caco-2 cell model, the apparent permeability coefficient (Papp) can be calculated according to the following formula, in cm/s:
[formula] • wherein the concentration C is in nM, the volume V is in μL, the time T is in s, and the area S is in cm^2.
The recovery rate is calculated according to the following formula:

[1] = Homo sapiens, NCI-N87, 144 h, Table 1, Test Example 2.1
[2] = Homo sapiens, JIMT-1, 144 h, Table 1, Test Example 2.1
[3] = Table 2 (untitled), Test Example 2.2
[4] = Homo sapiens, NCI-N87, 144 h, Table 2 (untitled), Test Example 2.2
[5] = Homo sapiens, JIMT-1, 144 h, Table 2 (untitled), Test Example 2.2
[6] = Caco-2, Recovery rate (%) AP-BL, KO143 −
[7] = Caco-2, Recovery rate (%) BL-AP, KO143 −
[8] = Caco-2, with KO143 (concentration not stated), Recovery rate (%) AP-BL, KO143 +
[9] = Caco-2, with KO143 (concentration not stated), Recovery rate (%) BL-AP, KO143 +

Compound | IC50 (NCI-N87 cells; [1]) [nM] | IC50 (JIMT-1 cells; [2]) [nM] | IC50 (JIMT-1 cells; Table 1, Test Example 2.1) [nM] | IC50 (JIMT-1 cells; [3]) [nM] | Recovery rate (%) AP-BL (BCRP; KO143 −) [%] | IC50 (NCI-N87 cells; [4]) [nM] | IC50 (JIMT-1 cells; [5]) [nM] | efflux ratio at 2 h (BCRP; KO143 −) | recovery at 2 h (BCRP; [6]) [%] | recovery at 2 h (BCRP; [7]) [%] | recovery at 2 h (BCRP; [8]) [%] | recovery at 2 h (BCRP; [9]) [%] | other results
CC[C@@]1(O)C(=O)OCc2c1cc1n(c2=O)Cc2c-1nc1cc(F)c(C)c3c1c2[C@@H](NC(=O)C[C@@H](C)O)CC3 [P-III-20, (R)—N-((1S,9S)-9-ethyl-5-fluoro-9-hydroxy-4-methyl-10,13-dioxo-2,3,9,10,13,15-hexahydro-1H,12H-benzo[de]pyrano[3′,4′: 6,7]indolizino[1,2-b]quinolin-1-yl)-3-hydroxybutanamide] | 5.89 | 4.35 |  |  |  |  |  |  |  |  |  |  | IC50 (NCI-N87 cells; Homo sapiens, NCI-N87, 144 h, Table 3, Test Example 2.3): 5.89 nM; IC50 (NCI-N87 cells; Homo sapiens, NCI-N87, 144 h, Table 4, Test Example 2.4): 5.9 nM; IC50 (JIMT-1 cells; Homo sapiens, JIMT-1, 144 h, Table 3, Test Example 2.3): 4.35 nM
CC[C@@]1(O)C(=O)OCc2c1cc1n(c2=O)Cc2c-1nc1cc(F)c(C)c3c1c2[C@@H](NC(=O)C1CCC(O)CC1)CC3 (single isomer, unassigned) [P-II-2] |  |  | 17 | 17.2 | 59.32 |  |  |  |  |  |  |  | IC50 (NCI-N87 cells; Table 1, Test Example 2.1): 22.1 nM; IC50 (NCI-N87 cells; [3]): 22.1 nM; Recovery rate (%) AP-BL (BCRP; KO143 +): 62.42%; Recovery rate (%) BL-AP (BCRP; KO143 +): 62.86%; Efflux ratio (BCRP; KO143 −): 30.08; Recovery rate (%) BL-AP (BCRP; KO143 −): 58.51%
CC[C@@]1(O)C(=O)OCc2c1cc1n(c2=O)Cc2c-1nc1cc(F)c(C)c3c1c2[C@@H](NC(=O)[C@H]1C[C@@H](O)C1)CC3 [P-II-3, (1s,3R)-N-((1S,9S)-9-ethyl-5-fluoro-9-hydroxy-4-methyl-10,13-dioxo-2,3,9,10,13,15-hexahydro-1H,12H-benzo[de]pyrano[3′,4′:6,7]indolizino[1,2-b]quinolin-1-yl)-3-hydroxycyclobutane-1-carboxamide] | 9.56 | 5 |  |  |  | 9.56 | 5 | 28.7 | 80.9 | 77.5 | 76.9 | 76.5 | 
CC[C@@]1(O)C(=O)OCc2c1cc1n(c2=O)Cc2c-1nc1cc(F)c(C)c3c1c2[C@@H](NC(=O)C1CCC(O)CC1)CC3 (single isomer, unassigned) [P-II-1] | 18.5 |  | 8.47 | 8.5 | 80.87 | 18.5 |  | 28.7 |  | 77.5 | 76.9 | 76.5 | 
CC[C@@]1(O)C(=O)OCc2c1cc1n(c2=O)Cc2c-1nc1cc(F)c(C)c3c1c2[C@@H](NC(=O)[C@H]1C[C@H](O)C1)CC3 [P-II-4, (1r,3S)-N-((1S,9S)-9-ethyl-5-fluoro-9-hydroxy-4-methyl-10,13-dioxo-2,3,9,10,13,15-hexahydro-1H,12H-benzo[de]pyrano[3′,4′:6,7]indolizino[1,2-b]quinolin-1-yl)-3-hydroxycyclobutane-1-carboxamide] | 8.03 | 6.64 |  |  |  | 8.03 | 6.6 | 36.1 | 63.8 | 64 | 65 | 63 | 
